Converted amounts (≈) assume the structure as drawn. The source made the active and inactive calls. The rule behind the calls is not given here.
Experiments:
[1] = target: Adenosine receptor A2a (Homo sapiens) (UniProt P29274); assay: Displacement of [3H]DPCPX from human A2AAR expressed in human HeLa cell membrane at 1 uM incubated for 30 mins by competitive binding assay relative to control; type: cell membranes
[2] = target: T1, Adenosine receptor A1 (Homo sapiens) (UniProt P30542); assay: Displacement of [3H]DPCPX from human A1AR expressed in CHO cell membrane at 1 uM incubated for 60 mins by competitive binding assay relative to control; type: cell membranes
T1 sequence (whole entry): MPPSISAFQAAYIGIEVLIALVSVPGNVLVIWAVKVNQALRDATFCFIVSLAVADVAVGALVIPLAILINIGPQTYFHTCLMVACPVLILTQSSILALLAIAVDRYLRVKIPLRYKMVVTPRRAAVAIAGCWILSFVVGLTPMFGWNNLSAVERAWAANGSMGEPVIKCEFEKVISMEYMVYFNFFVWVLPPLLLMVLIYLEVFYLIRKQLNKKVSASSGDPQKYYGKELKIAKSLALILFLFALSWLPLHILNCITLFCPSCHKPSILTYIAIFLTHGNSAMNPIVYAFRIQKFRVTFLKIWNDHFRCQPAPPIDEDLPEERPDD

[3] = Solubility of compound in 1:99 DMSO/PBS incubated for 4 hrs; type: physicochemical
[4] = target: T2, Adenosine receptor A3 (Homo sapiens) (UniProt P0DMS8); assay: Displacement of [3H]NECA from human A3AR expressed in human HeLa cell membrane at 1 uM incubated for 180 mins by competitive binding assay relative to control; type: cell membranes
T2 sequence (whole entry): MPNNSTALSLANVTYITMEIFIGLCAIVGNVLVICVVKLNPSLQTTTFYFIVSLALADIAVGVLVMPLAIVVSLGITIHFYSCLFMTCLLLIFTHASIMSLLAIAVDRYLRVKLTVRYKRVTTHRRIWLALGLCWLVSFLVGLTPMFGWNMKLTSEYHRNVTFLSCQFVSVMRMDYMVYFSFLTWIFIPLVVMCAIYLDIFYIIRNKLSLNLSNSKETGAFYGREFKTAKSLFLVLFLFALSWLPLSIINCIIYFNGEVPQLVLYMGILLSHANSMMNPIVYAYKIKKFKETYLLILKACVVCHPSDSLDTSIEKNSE

[5] = target: T3, Cytochrome P450 3A4 (Homo sapiens, UniProt P08684); assay: Inhibition of CYP3A4 (unknown origin) using 7-BFC as substrate preincubated for 5 mins followed by substrate addition by fluorescence based assay; type: ADME
[6] = target: T4, Adenosine receptor A2b (Homo sapiens) (UniProt P29275); assay: Antagonist activity against N-terminal pRK5/SNAP-tagged human A2BAR transfected in HEK293T cells assessed as reduction in NECA-induced change in cellular impedence by measuring AUC measured for 45 mins; type: functional, cell-based; conditions: filed as antagonist
T4 sequence (whole entry): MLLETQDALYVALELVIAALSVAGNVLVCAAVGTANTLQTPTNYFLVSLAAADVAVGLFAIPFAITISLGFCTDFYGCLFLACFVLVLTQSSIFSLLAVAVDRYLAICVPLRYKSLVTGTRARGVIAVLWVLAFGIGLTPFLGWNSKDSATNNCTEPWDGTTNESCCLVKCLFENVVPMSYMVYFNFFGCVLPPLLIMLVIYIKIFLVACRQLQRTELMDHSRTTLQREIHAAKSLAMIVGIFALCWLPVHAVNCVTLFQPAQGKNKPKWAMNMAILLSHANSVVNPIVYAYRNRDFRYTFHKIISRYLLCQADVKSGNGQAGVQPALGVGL

[7] = Immunostimulatory effect on anti-CD3/CD28 antibodies/IL-2-activated human PBMC cells assessed as reversal of ADO-mediated inhibition of cell proliferation at 15 uM incubated for 3 days by CFSE dye based flow cytometry (reference value: 3.55 %); type: functional; design: scale not given: the % may be the effect or the level left; conditions: time 3 day
[8] = target: T3, Cytochrome P450 3A4
Description: Inhibition of CYP3A4 (unknown origin) using DBF as substrate preincubated for 5 mins followed by substrate addition by fluorescence based assay

Sequence of Adenosine receptor A2a (Homo sapiens) (P29274 whole entry): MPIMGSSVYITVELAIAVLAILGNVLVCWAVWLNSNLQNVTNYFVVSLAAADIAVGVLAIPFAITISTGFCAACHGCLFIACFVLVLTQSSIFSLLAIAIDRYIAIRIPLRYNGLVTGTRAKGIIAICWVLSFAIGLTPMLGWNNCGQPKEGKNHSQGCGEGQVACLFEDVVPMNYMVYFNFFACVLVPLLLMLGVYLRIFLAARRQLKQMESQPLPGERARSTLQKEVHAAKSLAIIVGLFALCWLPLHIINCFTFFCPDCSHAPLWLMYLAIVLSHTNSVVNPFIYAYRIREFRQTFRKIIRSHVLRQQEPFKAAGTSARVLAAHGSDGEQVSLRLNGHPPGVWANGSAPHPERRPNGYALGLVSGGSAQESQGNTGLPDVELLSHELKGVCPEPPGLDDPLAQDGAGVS
T3 sequence (P08684 whole entry): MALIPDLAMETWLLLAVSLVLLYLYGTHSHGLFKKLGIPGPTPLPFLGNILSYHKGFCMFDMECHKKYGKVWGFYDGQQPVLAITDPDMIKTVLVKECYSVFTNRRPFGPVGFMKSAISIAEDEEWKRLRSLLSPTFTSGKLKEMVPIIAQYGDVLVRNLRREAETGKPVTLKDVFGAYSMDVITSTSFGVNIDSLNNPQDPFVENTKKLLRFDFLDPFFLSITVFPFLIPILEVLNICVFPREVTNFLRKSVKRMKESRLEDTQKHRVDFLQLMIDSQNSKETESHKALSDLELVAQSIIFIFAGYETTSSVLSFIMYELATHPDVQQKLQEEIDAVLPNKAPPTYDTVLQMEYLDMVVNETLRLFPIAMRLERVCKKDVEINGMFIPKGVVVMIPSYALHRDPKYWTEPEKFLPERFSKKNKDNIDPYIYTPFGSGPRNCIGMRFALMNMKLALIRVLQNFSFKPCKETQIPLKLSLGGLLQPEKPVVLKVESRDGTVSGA

| Activity [1] | solubility kinetic at 4 h [3] | IC50 [5] | Activity [6] | Structure (SMILES) | also measured |
| --- | --- | --- | --- | --- | --- |
|  |  | > 10 µM | Active | CC1=C(C(=O)OC(C)C)C(c2ccco2)n2c(nc3cc(Br)ccc32)N1 (racemic) |  |
|  |  | > 10 µM | Active | CC1=C(C(=O)OC(C)C)C(c2ccco2)n2c(nc3cc(Cl)ccc32)N1 (racemic) | Activity [7]: 6.64% |
|  |  | > 10 µM |  | CC1=C(C(=O)OC(C)C)C(c2ccco2)n2c(nc3cc(F)c(F)cc32)N1 (racemic) | IC50 [8]: > 10 µM |
|  | 25.2 µM (≈ 8.5 µg/mL) |  |  | CC1=C(C(=O)OC(C)C)C(c2ccco2)n2c(nc3ccccc32)N1 (centres undefined) |  |
| 23% | 26.1 µM (≈ 8.81 µg/mL) |  |  | CC1=C(C(=O)OC(C)C)C(c2ccoc2)n2c(nc3ccccc32)N1 (centres undefined) |  |
|  |  | > 10 µM | Active | CC1=C(C(=O)OC(C)C)C(c2ccco2)n2c(nc3cc(F)ccc32)N1 (racemic) | IC50 [8]: > 10 µM |
| 14% |  |  |  | CC1=C(C(=O)OC(C)C)[C@@H](c2ccco2)n2c(nc3cc(Br)ccc32)N1 |  |

Second part, the molecule before the results:

| Structure (SMILES) | Activity [1] | solubility kinetic at 4 h [3] | IC50 [5] | Activity [6] | also measured |
| --- | --- | --- | --- | --- | --- |
| CC1=C(C(=O)OC(C)C)C(c2cocn2)n2c(nc3ccccc32)N1 (centres undefined) | 19% | 39.7 µM (≈ 13.4 µg/mL) |  |  | Activity [2]: 7%; Activity [4]: 16% |
| CCOC(=O)C1=C(C)Nc2nc3cc(Br)ccc3n2[C@H]1c1ccoc1 |  |  |  |  | Activity [4]: 10% |
| CCCn1c(=O)[nH]c2[nH]c(-c3ccc(S(=O)(=O)C4CCC(c5ccc(Cl)cc5)CC4)cc3)nc2c1=O (centres undefined) |  | 0.2 µM (≈ 0.105 µg/mL) |  |  |  |
| CCOC(=O)C1=C(C)Nc2nc3ccccc3n2C1c1cocn1 (centres undefined) |  |  |  |  | Activity [2]: 5%; Activity [4]: 7% |
| CCOC(=O)C1=C(C)Nc2nc3cc(Br)ccc3n2C1c1ccoc1 (racemic) |  |  |  | Active |  |
| CCOC(=O)C1=C(C)Nc2nc3cc(Br)ccc3n2[C@@H]1c1ccoc1 | 12% |  |  |  |  |
